Source: the supplement of paper PMC10307832

Legend:
Experiment in all cases: relative viability (nuclei count vs DMSO), 5 days (fraction); higher = more cells survive
[1] = compound: O[C@H]1CC[C@H](Nc2ncc3nc(Nc4c(F)cc(F)cc4F)n([C@H]4CCOC4)c3n2)CC1 [Tanzisertib] + CC(=O)c1c(C)c2cnc(Nc3ccc(N4CCNCC4)cn3)nc2n(C2CCCC2)c1=O [Palbociclib] (partner 0.5 µM)
Method in brief: (§1)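 Lung cancer cell lines in 1536-well plates got either a single drug or a fixed anchor-drug dose together with five library-drug doses (not always all listed) in √10 steps, by pin tool, on the day after seeding. Nuclei were counted after 5 days, and relative viability is the treated-to-vehicle ratio of nuclei counts. Values are medians of duplicate plates.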

[2] = compound: C[C@@H](N)c1ccc(C(=O)Nc2ccnc3[nH]ccc23)cc1 + CC(=O)c1c(C)c2cnc(Nc3ccc(N4CCNCC4)cn3)nc2n(C2CCCC2)c1=O [Palbociclib] (partner 0.5 µM)
Method in brief: as §1

[3] = compound: C1CNCCC1C2=CC(=NN2)C3=CC=NC=C3 + CC1(C)CCC(c2ccc(Cl)cc2)=C(CN2CCN(c3ccc(C(=O)NS(=O)(=O)c4ccc(N[C@H](CCN5CCOCC5)CSc5ccccc5)c(S(=O)(=O)C(F)(F)F)c4)cc3)CC2)C1 [Navitoclax] (partner 0.5 µM)
Method in brief: as §1

[4] = compound: C1CNCCC1C2=CC(=NN2)C3=CC=NC=C3 + NC(=O)Nc1cc(-c2cccc(F)c2)sc1C(=O)N[C@H]1CCCNC1 [AZD7762] (partner 0.2 µM)
Method in brief: as §1

NCI-H1944
relative viability ([1]; first compound 0.08 µM): 0.322
relative viability ([1]; first compound 0.253 µM): 0.343
relative viability ([1]; first compound 0.8 µM): 0.324
relative viability ([1]; first compound 2.53 µM): 0.339
relative viability ([1]; first compound 8 µM): 0.295
relative viability ([2]; first compound 0.04 µM): 0.37
relative viability ([2]; first compound 0.1265 µM): 0.334
relative viability ([2]; first compound 0.4 µM): 0.351
relative viability ([2]; first compound 1.265 µM): 0.387
relative viability ([2]; first compound 4 µM): 0.266
relative viability ([3]; first compound 0.08 µM): 0.989
relative viability ([3]; first compound 0.8 µM): 0.937
relative viability ([3]; first compound 2.53 µM): 1.09
relative viability ([3]; first compound 8 µM): 1
relative viability ([4]; first compound 0.08 µM): 0.442
relative viability ([4]; first compound 0.8 µM): 0.467
relative viability ([4]; first compound 2.53 µM): 0.477
relative viability ([4]; first compound 8 µM): 0.503

NCI-H727
relative viability ([1]; first compound 0.08 µM): 0.74
relative viability ([1]; first compound 0.253 µM): 0.673
relative viability ([1]; first compound 0.8 µM): 0.614
relative viability ([1]; first compound 2.53 µM): 0.676
relative viability ([1]; first compound 8 µM): 0.626
relative viability ([2]; first compound 0.04 µM): 0.667
relative viability ([2]; first compound 0.1265 µM): 0.714
relative viability ([2]; first compound 0.4 µM): 0.746
relative viability ([2]; first compound 1.265 µM): 0.748
relative viability ([2]; first compound 4 µM): 0.798
relative viability ([3]; first compound 0.08 µM): 0.411
relative viability ([3]; first compound 0.8 µM): 0.459
relative viability ([3]; first compound 2.53 µM): 0.623
relative viability ([3]; first compound 8 µM): 0.67
relative viability ([4]; first compound 0.08 µM): 0.658
relative viability ([4]; first compound 0.8 µM): 0.474
relative viability ([4]; first compound 2.53 µM): 0.72
relative viability ([4]; first compound 8 µM): 0.773

HCC-827
relative viability ([1]; first compound 0.08 µM): 0.533
relative viability ([1]; first compound 0.253 µM): 0.468
relative viability ([1]; first compound 0.8 µM): 0.475
relative viability ([1]; first compound 2.53 µM): 0.429
relative viability ([1]; first compound 8 µM): 0.24
relative viability ([2]; first compound 0.1265 µM): 0.442
relative viability ([2]; first compound 0.4 µM): 0.478
relative viability ([2]; first compound 1.265 µM): 0.476
relative viability ([2]; first compound 4 µM): 0.433
relative viability ([3]; first compound 0.08 µM): 0.972
relative viability ([3]; first compound 0.8 µM): 0.995
relative viability ([3]; first compound 2.53 µM): 0.991
relative viability ([3]; first compound 8 µM): 0.876
relative viability ([4]; first compound 0.08 µM): 0.248
relative viability ([4]; first compound 0.8 µM): 0.155
relative viability ([4]; first compound 2.53 µM): 0.271
relative viability ([4]; first compound 8 µM): 0.223

HCC-366
relative viability ([1]; first compound 0.253 µM): 0.395
relative viability ([1]; first compound 0.8 µM): 0.424
relative viability ([1]; first compound 2.53 µM): 0.368
relative viability ([1]; first compound 8 µM): 0.384
relative viability ([2]; first compound 0.04 µM): 0.474
relative viability ([2]; first compound 0.1265 µM): 0.392
relative viability ([2]; first compound 0.4 µM): 0.379
relative viability ([2]; first compound 1.265 µM): 0.455
relative viability ([2]; first compound 4 µM): 0.383
relative viability ([3]; first compound 0.08 µM): 1.02
relative viability ([3]; first compound 0.8 µM): 1.12
relative viability ([3]; first compound 2.53 µM): 1.07
relative viability ([3]; first compound 8 µM): 1.08
relative viability ([4]; first compound 0.08 µM): 0.271
relative viability ([4]; first compound 0.8 µM): 0.361
relative viability ([4]; first compound 2.53 µM): 0.287
relative viability ([4]; first compound 8 µM): 0.345

HARA
relative viability ([1]; first compound 0.08 µM): 0.247
relative viability ([1]; first compound 0.253 µM): 0.313
relative viability ([1]; first compound 0.8 µM): 0.257
relative viability ([1]; first compound 2.53 µM): 0.193
relative viability ([1]; first compound 8 µM): 0.267
relative viability ([2]; first compound 0.04 µM): 0.292
relative viability ([2]; first compound 0.1265 µM): 0.271
relative viability ([2]; first compound 0.4 µM): 0.28
relative viability ([2]; first compound 1.265 µM): 0.214
relative viability ([2]; first compound 4 µM): 0.248
relative viability ([3]; first compound 0.08 µM): 1.13
relative viability ([3]; first compound 0.8 µM): 1.14
relative viability ([3]; first compound 2.53 µM): 1.17
relative viability ([3]; first compound 8 µM): 1.2
relative viability ([4]; first compound 0.08 µM): 0.328
relative viability ([4]; first compound 0.8 µM): 0.306
relative viability ([4]; first compound 2.53 µM): 0.295
relative viability ([4]; first compound 8 µM): 0.258

NCI-H322M
relative viability ([1]; first compound 0.08 µM): 0.475
relative viability ([1]; first compound 0.253 µM): 0.459
relative viability ([1]; first compound 0.8 µM): 0.475
relative viability ([1]; first compound 2.53 µM): 0.472
relative viability ([1]; first compound 8 µM): 0.534
relative viability ([2]; first compound 0.04 µM): 0.534
relative viability ([2]; first compound 0.1265 µM): 0.584
relative viability ([2]; first compound 0.4 µM): 0.526
relative viability ([2]; first compound 1.265 µM): 0.515
relative viability ([2]; first compound 4 µM): 0.524
relative viability ([3]; first compound 0.08 µM): 1.22
relative viability ([3]; first compound 0.8 µM): 1.19
relative viability ([3]; first compound 2.53 µM): 1.24
relative viability ([3]; first compound 8 µM): 1.18
relative viability ([4]; first compound 0.08 µM): 0.582
relative viability ([4]; first compound 0.8 µM): 0.597
relative viability ([4]; first compound 2.53 µM): 0.627
relative viability ([4]; first compound 8 µM): 0.622

LXF-289
relative viability ([1]; first compound 0.08 µM): 0.596
relative viability ([1]; first compound 0.253 µM): 0.592
relative viability ([1]; first compound 0.8 µM): 0.647
relative viability ([1]; first compound 2.53 µM): 0.574
relative viability ([1]; first compound 8 µM): 0.65
relative viability ([2]; first compound 0.04 µM): 0.613
relative viability ([2]; first compound 0.1265 µM): 0.611
relative viability ([2]; first compound 0.4 µM): 0.565
relative viability ([2]; first compound 1.265 µM): 0.61
relative viability ([2]; first compound 4 µM): 0.512
relative viability ([3]; first compound 0.08 µM): 0.957
relative viability ([3]; first compound 0.8 µM): 1.02
relative viability ([3]; first compound 2.53 µM): 0.977
relative viability ([3]; first compound 8 µM): 0.934
relative viability ([4]; first compound 0.08 µM): 1.15
relative viability ([4]; first compound 0.8 µM): 1.14
relative viability ([4]; first compound 2.53 µM): 1.15
relative viability ([4]; first compound 8 µM): 1.1

PC-3 [JPC-3]
relative viability ([1]; first compound 0.08 µM): 0.539
relative viability ([1]; first compound 0.253 µM): 0.53
relative viability ([1]; first compound 0.8 µM): 0.576
relative viability ([1]; first compound 2.53 µM): 0.521
relative viability ([1]; first compound 8 µM): 0.571
relative viability ([2]; first compound 0.04 µM): 0.544
relative viability ([2]; first compound 0.1265 µM): 0.516
relative viability ([2]; first compound 0.4 µM): 0.53
relative viability ([2]; first compound 1.265 µM): 0.551
relative viability ([2]; first compound 4 µM): 0.575
relative viability ([3]; first compound 0.08 µM): 0.835
relative viability ([3]; first compound 0.8 µM): 0.905
relative viability ([3]; first compound 2.53 µM): 0.818
relative viability ([3]; first compound 8 µM): 0.786
relative viability ([4]; first compound 0.08 µM): 0.879
relative viability ([4]; first compound 0.8 µM): 0.817
relative viability ([4]; first compound 2.53 µM): 0.689
relative viability ([4]; first compound 8 µM): 0.936

CAL-12T
relative viability ([1]; first compound 0.08 µM): 0.486
relative viability ([1]; first compound 0.253 µM): 0.447
relative viability ([1]; first compound 0.8 µM): 0.539
relative viability ([1]; first compound 2.53 µM): 0.422
relative viability ([1]; first compound 8 µM): 0.279
relative viability ([2]; first compound 0.04 µM): 0.558
relative viability ([2]; first compound 0.1265 µM): 0.438
relative viability ([2]; first compound 0.4 µM): 0.519
relative viability ([2]; first compound 1.265 µM): 0.161
relative viability ([2]; first compound 4 µM): 0.428
relative viability ([3]; first compound 0.08 µM): 1.11
relative viability ([3]; first compound 0.8 µM): 1.45
relative viability ([3]; first compound 2.53 µM): 1.29
relative viability ([3]; first compound 8 µM): 1.43
relative viability ([4]; first compound 0.08 µM): 0.701
relative viability ([4]; first compound 0.8 µM): 0.669
relative viability ([4]; first compound 2.53 µM): 0.601
relative viability ([4]; first compound 8 µM): 0.66
